Test results: patent US9440982B2 (Eolas Therapeutics, Inc., priority 2012, dated 2016)

biological target: T1, OX1 (Homo sapiens, UniProt O43613); test: Orexin receptor cell-based functional assay, [Ca2+]i by FLIPR, CHO-OX1 cells; conditions: Table 2; CHO-OX1 cells, EC90 of OXA; read-out: IC50 Bioactivity OX1
T1 construct: expressed in transfected cells; host or cells: CHO (CHO-OX1, kept under selection antibiotic)
T1 sequence (O43613 1-425): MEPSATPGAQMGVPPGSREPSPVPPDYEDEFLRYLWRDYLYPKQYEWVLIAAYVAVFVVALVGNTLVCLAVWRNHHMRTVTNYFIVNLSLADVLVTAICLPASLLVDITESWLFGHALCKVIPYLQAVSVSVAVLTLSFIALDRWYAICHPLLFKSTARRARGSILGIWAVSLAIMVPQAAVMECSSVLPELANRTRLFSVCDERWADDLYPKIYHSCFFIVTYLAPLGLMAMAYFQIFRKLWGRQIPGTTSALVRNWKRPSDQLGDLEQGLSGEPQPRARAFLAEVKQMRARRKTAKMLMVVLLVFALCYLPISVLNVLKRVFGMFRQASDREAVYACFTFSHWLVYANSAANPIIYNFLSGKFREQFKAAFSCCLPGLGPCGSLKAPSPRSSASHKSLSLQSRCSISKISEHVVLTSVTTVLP
Method: Measurement of [Ca^2+]i using a FLIPR: CHO—OX1 or CHO—OX2 cells are seeded into black-walled clear-base 384-well plates (Costar) at a density of 20,000 cells per well in F12-K medium supplemented with 10% FBS and selection antibiotic (500 ug/ml G418 or 15 ug/ml Blasticidin) and cultured overnight. The cells are incubated with equal volume of calcium4 loading buffer (Molecular Devices, Inc.) containing 2.5 mM probenecid at 37° C. for 30 min, followed by putative OX1 or OX2 receptor antagonists (dose-range 0.1 nM-10 μM) for another 30 min.
The cells are incubated with equal volume of calcium6 loading buffer (Molecular Devices, Inc.) containing 2.5 mM probenecid at 37° C. for 2 h, followed by test compounds (dose-range 0.1 nM-10 μM) for another 30 min.

Row | Structure (SMILES) | IC50 [nM]
1 | Cc1nc(C(=O)N2CC(F)CCC2CNC(=O)c2cccc3cccnc23)c(-c2ccccc2)s1 (racemic) [Example 1, N-((5-Fluoro-1-(2-methyl-5-phenylthiazole-4-carbonyl)piperidin-2-yl)methyl)quinoline-8-carboxamide] | 1
2 | Cc1nc(C(=O)N2CCC[C@@H](C(F)(F)F)[C@H]2CNc2ccc(C(F)(F)F)cn2)c(-c2ccccc2)s1 (racemic) [Example 14, rac-cis-(2-Methyl-5-phenylthiazol-4-yl)(3-(trifluoromethyl)-2-(((5-(trifluoromethyl)pyridin-2-yl)amino)methyl)piperidin-1-yl)methanone] | 9
3 | COc1ccnc(NC[C@@H]2[C@H](C)CCCN2C(=O)c2nc(C)sc2-c2ccc(F)cc2)n1 (racemic) [Example 17, rac-cis-(5-(4-Fluorophenyl)-2-methylthiazol-4-yl)(2-(((4-methoxypyrimidin-2-yl)amino)methyl)-3-methylpiperidin-1-yl)methanone] | 52
4 | Cc1nc(C(=O)N2CCC[C@@H](C)[C@H]2CNc2ccc(Cl)cn2)c(-c2ccc(F)cc2)s1 (racemic) [Example 18, rac-cis-(2-(((5-Chloropyridin-2-yl)amino)methyl)-3-methylpiperidin-1-yl)(5-(4-fluorophenyl)-2-methylthiazol-4-yl)methanone] | 16
5 | Cc1nc(-c2ccccc2)c(C(=O)N2C(C)CCCC2CNC(=O)c2cccc3cccnc23)s1 (racemic) [Example 29, rac-N-((6-Methyl-1-(2-methyl-4-phenylthiazole-5-carbonyl)piperidin-2-yl)methyl)quinoline-8-carboxamide] | 200
6 | Cc1nc(-c2ccccc2)c(C(=O)N2C(C)CCCC2CCOc2ccccc2)s1 (racemic) [Example 30, rac-(2-Methyl-4-phenylthiazol-5-yl)(2-methyl-6-(2-phenoxyethyl)piperidin-1-yl)methanone] | 220
7 | CC1CCCC(CCOc2ccccc2)N1C(=O)c1ccccc1-c1ccccc1 (racemic) [Example 31, rac-Biphenyl-2-yl(2-methyl-6-(2-phenoxyethyl)piperidin-1-yl)methanone] | 10
8 | Cc1nc(-c2ccccc2)c(C(=O)N2CC(O)CCC2CNC(=O)c2cccc3cccnc23)s1 (racemic) [Example 33, N-((5-Hydroxy-1-(2-methyl-4-phenylthiazole-5-carbonyl)piperidin-2-yl)methyl)quinoline-8-carboxamide] | 20
9 | O=C(NCC1CCC(NCc2ccccc2)CN1C(=O)c1ccccc1-c1ccccc1)c1cccc2cccnc12 (racemic) [Example 40, N-((5-(Benzylamino)-1-(biphenylcarbonyl)piperidin-2-yl)methyl)quinoline-8-carboxamide] | 600
10 | CN(C)C1CCC(CNC(=O)c2cccc3cccnc23)N(C(=O)c2ccccc2-c2ccccc2)C1 (racemic) [Example 41, N-((1-(Biphenylcarbonyl)-5-(dimethylamino)piperidin-2-yl)methyl)quinoline-8-carboxamide] | 1500
11 | CNC1CCC(CNC(=O)c2cccc3cccnc23)N(C(=O)c2sc(C)nc2-c2ccccc2)C1 (racemic) [Example 45, N-((1-(2-Methyl-4-phenylthiazole-5-carbonyl)-5-(methylamino)piperidin-2-yl)methyl)quinoline-8-carboxamide] | < 10000
12 | CCNC1CCC(CNC(=O)c2cccc3cccnc23)N(C(=O)c2sc(C)nc2-c2ccccc2)C1 (racemic) [Example 46, N-((5-(Ethylamino)-1-(2-methyl-4-phenylthiazole-5-carbonyl)piperidin-2-yl)methyl)quinoline-8-carboxamide] | < 10000
13 | Cc1nc(-c2ccccc2)c(C(=O)N2CC(NC(C)C)CCC2CNC(=O)c2cccc3cccnc23)s1 (racemic) [Example 48, N-((5-(Isopropylamino)-1-(2-methyl-4-phenylthiazole-5-carbonyl)piperidin-2-yl)methyl)quinoline-8-carboxamide] | < 10000
14 | COC1CCC(CNC(=O)c2cccc3cccnc23)N(C(=O)c2nc(C)sc2-c2cccc(F)c2)C1 (racemic) [Example 50, N-((1-(5-(3-Fluorophenyl)-2-methylthiazole-4-carbonyl)-5-methoxypiperidin-2-yl)methyl)quinoline-8-carboxamide] | 7

Further lines, results first:

Row | IC50 [nM] | Structure (SMILES)
15 | < 3000 | COc1c(F)cccc1C(=O)N1CCC[C@@H](C)[C@H]1CNC(=O)c1cccc2cccnc12 (racemic) [Example 10, rac-cis-N-((1-(3-Fluoro-2-methoxybenzoyl)-3-methylpiperidin-2-yl)methyl)quinoline-8-carboxamide]
16 | 8 | CCc1cnc(NC[C@@H]2[C@H](C)CCCN2C(=O)c2nc(C)sc2-c2ccc(F)cc2)nc1 (racemic) [Example 16, rac-cis-(2-(((5-Ethylpyrimidin-2-yl)amino)methyl)-3-methylpiperidin-1-yl)(5-(4-fluorophenyl)-2-methylthiazol-4-yl)methanone]
17 | 270 | Cc1nc(C(=O)N2CCC[C@@H](C)[C@H]2CNc2ccnc(Cl)n2)c(-c2ccc(F)cc2)s1 (racemic) [Example 19, rac-cis-(2-(((2-Chloropyrimidin-4-yl)amino)methyl)-3-methylpiperidin-1-yl)(5-(4-fluorophenyl)-2-methylthiazol-4-yl)methanone]
18 | 24 | Cc1nc(C(=O)N2CCC[C@@H](C)[C@H]2CNc2cc(C(F)(F)F)ccn2)c(-c2ccc(F)cc2)s1 (racemic) [Example 21, rac-cis-(5-(4-Fluorophenyl)-2-methylthiazol-4-yl)(3-methyl-2-(((4-(trifluoromethyl)pyridin-2-yl)amino)methyl)piperidin-1-yl)methanone]
19 | 82 | Cc1nc(C(=O)N2CCC[C@@H](C)[C@H]2CNc2ncccc2C(F)(F)F)c(-c2ccc(F)cc2)s1 (racemic) [Example 22, rac-cis-(5-(4-Fluorophenyl)-2-methylthiazol-4-yl)(3-methyl-2-(((3-(trifluoromethyl)pyridin-2-yl)amino)methyl)piperidin-1-yl)methanone]
20 | 2 | Cc1nc(-c2ccccc2)c(C(=O)N2CC(F)CCC2CNC(=O)c2cccc3cccnc23)s1 (racemic) [Example 35, N-((5-Fluoro-1-(2-methyl-4-phenylthiazole-5-carbonyl)piperidin-2-yl)methyl)quinoline-8-carboxamide]
21 | 30 | NC1CCC(CNC(=O)c2cccc3cccnc23)N(C(=O)c2ccccc2-c2ccccc2)C1 (racemic) [Example 39, N-((5-Amino-1-(biphenylcarbonyl)piperidin-2-yl)methyl)quinoline-8-carboxamide]
22 | < 10000 | Cc1nc(-c2ccccc2)c(C(=O)N2CC(NCCO)CCC2CNC(=O)c2cccc3cccnc23)s1 (racemic) [Example 47, N-((5-(2-Hydroxyethylamino)-1-(2-methyl-4-phenylthiazole-5-carbonyl)piperidin-2-yl)methyl)quinoline-8-carboxamide]
23 | 25 | CNC1CCC(CNC(=O)c2cccc3cccnc23)N(C(=O)c2ccccc2-c2ccccc2)C1 (racemic) [Example 49, N-((1-(Biphenylcarbonyl)-5-(methylamino)piperidin-2-yl)methyl)quinoline-8-carboxamide]
